The values that follow come from ChEMBL document CHEMBL1201862, “PubChem BioAssay data set” (2004).

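Interpolation was linear, between the two tested concentrations surrounding the appropriate level; five concentrations were tested over 48 hours in 96-well plates. Abbreviation: GI50, concentration required for 50% inhibition of growth.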 Active and inactive are the calls of the source. Rule as the data show it: active = GI50 up to about 1.1 µM and inactive = higher.

Assay in all cases: DTP human tumour cell line panel, 48 h
Assay [1] deals with A498.
Assay [2] has as its system COLO 205.
The test system of assay [3] is HCC 2998.
Assay [4] relates to HOP-62.
Assay [5] deals with Hs-578T.
For assay [6], the system named is LOX IMVI.
The test system of assay [7] is M14.
The test system of assay [8] is MDA-MB-231.
The test system of assay [9] is MDA-N.
Assay [10] relates to MOLT-4.
Assay [11] relates to OVCAR-3.
In assay [12] the test system is OVCAR-8.
Assay [13] has as its system PC-3.
For assay [14], the system named is RPMI-8226.
In assay [15] the test system is RXF 393.
The test system of assay [16] is SF-268.
Assay [17] relates to SF-539.
For assay [18], the system named is SK-MEL-28.
For assay [19], the system named is UO-31.

In general, GI50 refers to the concentration at which growth is held to half of that of the control. Turning to `O=C1N/C(=N/N=C/C(O)C(O)C(O)C(O)CO)N/C1=C\c1cccs1` (configuration not stated), the GI50 is 73.1 µM (inactive) in assay [1]; > 100 µM (inactive) in assay [2]; > 100 µM (inactive) in assay [3]; > 100 µM (inactive) in assay [4]; > 100 µM (inactive) in assay [5]; > 100 µM (inactive) in [6]. The GI50 in assay [7], in assay [8], in assay [9], in assay [10], in assay [11] and in [12] was > 100 µM (inactive) in each case. Also, the GI50 in assay [13], in assay [14], in assay [15], in assay [16], in assay [17] and in [18] was > 100 µM (inactive) each time.

With `Nc1ncnc2nn(C3OC(CO)C(O)C3O)nc12` (configuration not stated), the GI50 in assay [1] is 10.2 µM (inactive); in assay [2], 5.06 µM (inactive); in assay [3], 7.6 µM (inactive); in [4], 14 µM (inactive); in assay [5] it was 31.5 µM (inactive); in assay [6], 6.32 µM (inactive). In addition, the GI50 in [7] is 6.82 µM (inactive); in [8], 3.75 µM (inactive); in assay [9] it was 10.3 µM (inactive); in assay [10], 15.1 µM (inactive); in assay [11], 7.57 µM (inactive); in assay [12], 8.11 µM (inactive). For the same compound, the GI50 in assay [13] was 17.3 µM (inactive); in assay [14], 3.64 µM (inactive); in assay [15], 2 µM (inactive); in assay [16], 20.4 µM (inactive); in [17], 21.8 µM (inactive); in assay [18], 36.6 µM (inactive). Further, the GI50 in assay [19] was 6.44 µM (inactive).

Take `COC(=O)[C@]12C3=C(O)C(=O)C[C@H]1OC[C@H]2C=CC3`: the GI50 in assay [1], in assay [2], in assay [3], in [4], in assay [5] and in [6] was > 100 µM (inactive) in each case. For the same compound, the GI50 in assay [7], in [8], in assay [9], in [11], in assay [12] and in assay [13] was > 100 µM (inactive) throughout. The GI50 in assay [14], in [15], in assay [16], in assay [18] and in assay [19] was > 100 µM (inactive) throughout.

Regarding `CO[C@@H](c1ccccc1)[C@H](O)[C@](O)(c1ccccc1)P(=O)(OC)OC`, the GI50 in [1], in assay [2], in [3], in [5], in assay [6] and in [7] was > 100 µM (inactive) throughout. The GI50 in [8], in [9], in [10], in assay [11], in assay [12] and in assay [13] was > 100 µM (inactive) each time. Also, the GI50 in [14], in assay [15], in assay [16], in assay [17], in [18] and in assay [19] was > 100 µM (inactive) each time.

For `Nc1c(OCC(=O)O)ccc2cc(S(=O)(=O)O)ccc12`, the GI50 in [1], in [2], in [3], in assay [4], in assay [5] and in [6] was > 100 µM (inactive) throughout. Also, the GI50 in [7], in [8], in assay [9], in [11], in assay [12] and in assay [13] was > 100 µM (inactive) throughout. Also, the GI50 in [14], in assay [15], in assay [16], in assay [17], in [18] and in [19] was > 100 µM (inactive) each time.

Take `CC12CCC([C@H](C(O)C3CCCCC3)C1=O)C2(C)C` (some centres not stated): the GI50 in assay [1], in [2], in assay [3], in assay [4], in assay [5] and in assay [6] was > 100 µM (inactive) throughout. Besides, the GI50 was > 100 µM (inactive) in assay [7]; > 100 µM (inactive) in [8]; > 100 µM (inactive) in [9]; 44.3 µM (inactive) in assay [10]; > 100 µM (inactive) in assay [11]; > 100 µM (inactive) in assay [12]. Moreover, the GI50 in [13] was > 100 µM (inactive); in assay [14], 49.4 µM (inactive); in assay [15], 75.2 µM (inactive); in [16], > 100 µM (inactive); in [17], > 100 µM (inactive); in assay [19], > 100 µM (inactive).

On to `CCCCCCCCCCCCN1[C@H]2CCC[C@H]2C(O)[C@@H]2CCC[C@@H]21` (some centres not stated), for which the GI50 in assay [1] is > 100 µM (inactive); in assay [2] it was > 100 µM (inactive); in assay [3], > 100 µM (inactive); in assay [4] it was > 100 µM (inactive); in [5], > 100 µM (inactive); in assay [6], 81.8 µM (inactive). For the same compound, the GI50 in assay [7], in [8], in assay [9], in assay [10], in assay [11] and in assay [12] was > 100 µM (inactive) in each case. Moreover, the GI50 was 88.5 µM (inactive) in [13]; > 100 µM (inactive) in assay [14]; > 100 µM (inactive) in assay [15]; > 100 µM (inactive) in assay [16]; > 100 µM (inactive) in assay [18].

For the compound `O=C1/C(=C/c2ccc(Cl)cc2)N=C(c2ccccc2)N1c1nc2ccc(Sc3ccccc3)cc2[nH]1`, the GI50 was 19.8 µM (inactive) in [1]; 19.7 µM (inactive) in assay [2]; 17.4 µM (inactive) in assay [3]; 40.3 µM (inactive) in assay [4]; 29.2 µM (inactive) in [5]; 23.9 µM (inactive) in [6]. In addition, the GI50 in [7] was 16.3 µM (inactive); in [8], 35.2 µM (inactive); in assay [9], 10.6 µM (inactive); in assay [10], 25.3 µM (inactive); in assay [11] it was 35.8 µM (inactive); in [12] it was 30.1 µM (inactive). The GI50 in assay [13] was 30.6 µM (inactive); in assay [14], 19.7 µM (inactive); in assay [15], 26.3 µM (inactive); in assay [16], 36.3 µM (inactive); in [18], 23.4 µM (inactive); in [19], 34.8 µM (inactive).

Consider `Cc1ccc2nc(NC(=O)/C(Cc3nc4ccc(Cl)cc4nc3O)=N\NC(C)(C)C)sc2c1`, for which the GI50 in assay [1] is > 100 µM (inactive); in [2] it was > 100 µM (inactive); in assay [3] it was > 100 µM (inactive); in [5] it was 18.2 µM (inactive); in assay [6], > 100 µM (inactive); in assay [7] it was > 100 µM (inactive). Moreover, the GI50 in [8], in assay [9], in assay [10], in assay [11], in assay [12] and in assay [13] was > 100 µM (inactive) in each case. For the same compound, the GI50 in assay [14] is > 100 µM (inactive); in assay [15] it was > 100 µM (inactive); in [16], 97.9 µM (inactive); in [17] it was > 100 µM (inactive); in [18] it was > 100 µM (inactive); in [19] it was 59.6 µM (inactive).

For the compound `OCC1=C[C@@](COCc2ccccc2)(OCc2ccccc2)[C@@H](OCc2ccccc2)[C@@H]1OCc1ccccc1`, the GI50 in assay [1] is 10.9 µM (inactive); in assay [2], 11.6 µM (inactive); in assay [3], 13.7 µM (inactive); in [4], 24.2 µM (inactive); in [5], 21.9 µM (inactive); in [6], 7.31 µM (inactive). Also, the GI50 in assay [7] is 23.9 µM (inactive); in [8], 9.08 µM (inactive); in assay [9], 17.2 µM (inactive); in [10], 4.57 µM (inactive); in [11] it was 11.7 µM (inactive); in assay [12] it was 36.2 µM (inactive). For the same compound, the GI50 is 15.1 µM (inactive) in assay [13]; 2.49 µM (inactive) in [14]; 3.64 µM (inactive) in [15]; 11.6 µM (inactive) in assay [16]; 35.3 µM (inactive) in assay [18]; 17 µM (inactive) in [19].

Consider `COc1cc(C2SC(=N)Nc3c2c(C)nn3C(=O)c2ccccc2O)ccc1O` (configuration not stated), for which the GI50 in [1] was 4.51 µM (inactive); in assay [2], > 5.55 µM (inactive); in assay [3], > 6.62 µM (inactive); in assay [4], > 2.61 µM (inactive); in assay [5] it was 0.461 µM (active); in assay [6], 1.47 µM (inactive). Moreover, the GI50 was > 2.85 µM (inactive) in assay [7]; > 3.98 µM (inactive) in assay [8]; 1.75 µM (inactive) in assay [9]; > 2.28 µM (inactive) in [10]; > 2.93 µM (inactive) in assay [11]; > 2.33 µM (inactive) in assay [12]. Also, the GI50 in assay [13] was > 4.03 µM (inactive); in [14], > 2.09 µM (inactive); in [15] it was 1.52 µM (inactive); in assay [16] it was > 3.05 µM (inactive); in assay [18], > 10 µM (inactive); in assay [19], 9.31 µM (inactive).
